Key:
[1] = Stability of multibiotic agents in Simulated Gastric Fluid (SGF); format: in vitro ADME; conditions: simulated gastric fluid pH 1.6 with pepsin, 37° C., 1 μM
Method in brief: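 Compounds were incubated at 1 μM final at 37 °C in simulated gastric fluid containing NaCl, pH 1.6, with FaSSIF powder and 0.1 mg/mL pepsin. Aliquots were taken at T0 and at regular intervals and quenched with acetonitrile. Degradation rates were determined by LC/MS.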

[2] = Stability of multibiotic agents in Simulated Intestinal Fluid (SIF); format: in vitro ADME; conditions: simulated intestinal fluid pH 6.7 with pancreatin, 37° C., 1 μM
Method in brief: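 Compounds at 1 μM final (from 1 mM DMSO stock) incubated at 37 °C with agitation in fresh SIF (FaSSIF plus pancreatin in pH 6.7 phosphate buffer). Aliquots taken at T0 and regular intervals, quenched with 1 volume acetonitrile. Degradation rate determined by LC/MS.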

Compound	Assay 2 (SGF) (% Remaining @ 4 hours) [1]	Assay 3 (SIF) (% @ Remaining 4 hours) [2]
CCCC(=O)O[C@H]1[C@H](OC(=O)CCC)[C@H](OC(=O)CCC)[C@@H](OC)[C@H](OC(=O)CCC)[C@H]1OC(=O)CCC [Example 85, (1R,2R,3R,4S,5R,6R)-2,3,4,6-tetrakis(butanoyloxy)-5-methoxycyclohexyl butanoate]	C (>75% of the tested compound remaining)	C (>75% of the tested compound remaining)
CCCC(=O)O[C@H](C)CC(=O)Oc1ccc(/C=C/C(=O)CC(=O)/C=C/c2ccc(OC(=O)C[C@@H](C)OC(=O)CCC)c(OC)c2)cc1OC [Example 73, [4-[(1E,6E)-7-[4-[(3R)-3-butanoyloxybutanoyl]oxy-3-methoxy-phenyl]-3,5-dioxo-hepta-1,6-dienyl]-2-methoxy-phenyl] (3R)-3-butanoyloxybutanoate]	C (>75% of the tested compound remaining)	B (25-75% of the tested compound remaining)
C[C@@H](O)CC(=O)NCCCNCCCCN(CCCNC(=O)C[C@@H](C)O)C(=O)C[C@@H](C)O [Example 137, (3R)-3-hydroxy-N-[3-[4-[[(3R)-3-hydroxybutanoyl]-[3-[[(3R)-3-hydroxybutanoyl]amino]propyl]amino]butylamino]propyl]butanamide]	C (>75% of the tested compound remaining)	C (>75% of the tested compound remaining)
O=C(CCc1c[nH]c2ccccc12)O[C@H]1CO[C@H]2[C@@H]1OC[C@H]2OC(=O)CCc1c[nH]c2ccccc12 [Example 110, [(3S,3aR,6R,6aR)-6-[3-(1H-indol-3-yl)propanoyloxy]-2,3,3a,5,6,6a-hexahydrofuro[3,2-b]furan-3-yl] 3-(1H-indol-3-yl) propanoate]	C (>75% of the tested compound remaining)	A (<25% of the tested compound remaining)
CCCC(=O)OCC(C)(C)[C@@H](OC(=O)CCC)C(=O)NCCC(N)=O [Example 95, [(3R)-4-[(3-amino-3-oxo-propyl)amino]-3-butanoyloxy-2,2-dimethyl-4-oxo-butyl] butanoate]	C (>75% of the tested compound remaining)	C (>75% of the tested compound remaining)
CCCC(=O)OC[C@H](OC(=O)CCC)[C@@H](COC(=O)CCC)OC(=O)CCC [Example 82, (2R,3S)-butane-1,2,3,4-tetrayl tetrabutyrate]	C (>75% of the tested compound remaining)	B (25-75% of the tested compound remaining)
CC(=O)O[C@H]1CO[C@H]2[C@@H]1OC[C@H]2OC(C)=O [Example 88, [(3S,3aR,6R,6aR)-6-acetoxy-2,3,3a,5,6,6a-hexahydrofuro[3,2-b]furan-3-yl] acetate]	C (>75% of the tested compound remaining)	C (>75% of the tested compound remaining)
CC(=O)Oc1cc(OC(C)=O)c2c(=O)c(OC(C)=O)c(-c3cc(OC(C)=O)c(OC(C)=O)c(OC(C)=O)c3)oc2c1 [Example 177, [3,5-diacetoxy-4-oxo-2-(3,4,5-triacetoxyphenyl)chromen-7-yl] acetate]	C (>75% of the tested compound remaining)	A (<25% of the tested compound remaining)
CCC(=O)OC1OC[C@@H](OC(=O)CC)[C@H](OC(=O)CC)[C@H]1OC(=O)CC (stereo partly drawn) [Example 165, [(3R,4S,5R)-4,5,6-tri(propanoyloxy)tetrahydropyran-3-yl] propanoate]	C (>75% of the tested compound remaining)	A (<25% of the tested compound remaining)
C[C@@H](O)CC(=O)NCCCNC(=O)C[C@@H](C)O [Example 135, (3R)-3-hydroxy-N-[3-[[(3R)-3-hydroxybutanoyl]amino]propyl]butanamide]	C (>75% of the tested compound remaining)	C (>75% of the tested compound remaining)
CCCC(=O)/N=C(/NCCCCNC(=O)CCC)NC(=O)CCC [Example 134, N-[4-[[(Z)—N,N′-di(butanoyl)carbamimidoyl]amino]butyl]butanamide]	C (>75% of the tested compound remaining)	C (>75% of the tested compound remaining)
CC(=O)Oc1ccc(-c2oc3cc(OC(C)=O)cc(OC(C)=O)c3c(=O)c2OC(C)=O)cc1 [Example 169, [4-(3,5,7-triacetoxy-4-oxo-chromen-2-yl)phenyl] acetate]	C (>75% of the tested compound remaining)	A (<25% of the tested compound remaining)
CCCC(=O)OC1O[C@@H](C)[C@H](OC(=O)CCC)[C@@H](OC(=O)CCC)[C@H]1OC(=O)CCC (stereo partly drawn) [Example 152, [(2S,3S,4R,5R)-4,5,6-tri(butanoyloxy)-2-methyl-tetrahydropyran-3-yl] butanoate]	C (>75% of the tested compound remaining)	C (>75% of the tested compound remaining)
CC(=O)Oc1ccc(C2CC(=O)c3c(OC(C)=O)cc(OC(C)=O)cc3O2)cc1 (centres unmarked) [Example 170, [4-(5,7-diacetoxy-4-oxo-chroman-2-yl)phenyl] acetate]	C (>75% of the tested compound remaining)	A (<25% of the tested compound remaining)
CCCC(=O)O[C@H]1[C@@H](OC(=O)CCC)COC(O)[C@@H]1OC(=O)CCC (stereo partly drawn) [Example 140, [(3S,4S,5R)-4,5-di(butanoyloxy)-6-hydroxy-tetrahydropyran-3-yl] butanoate]	C (>75% of the tested compound remaining)	C (>75% of the tested compound remaining)
C[C@@H](O)CC(=O)NCCCNCCCNC(=O)C[C@@H](C)O [Example 143, (3R)-3-hydroxy-N-[3-[3-[[(3R)-3-hydroxybutanoyl]amino]propylamino]propyl] butanamide]	C (>75% of the tested compound remaining)	C (>75% of the tested compound remaining)
CCCC(=O)NCCCN(CCCCN(CCCNC(=O)CCC)C(=O)CCC)C(=O)CCC [Example 128, N-[3-[butanoyl-[4-[butanoyl-[3-(butanoylamino)propyl]amino]butyl]amino]propyl]butanamide]	C (>75% of the tested compound remaining)	C (>75% of the tested compound remaining)
CCCC(=O)O[C@H](C)CC(=O)OCc1cnc(C)c(OC(=O)C[C@@H](C)OC(=O)CCC)c1COC(=O)C[C@@H](C)OC(=O)CCC [Example 101, [5-[(3R)-3-butanoyloxybutanoyl]oxy-4-[[(3R)-3-butanoyloxybutanoyl]oxymethyl]-6-methyl-3-pyridyl]methyl (3R)-3-butanoyloxybutanoate]	C (>75% of the tested compound remaining)	C (>75% of the tested compound remaining)
O=C(Cc1c[nH]c2ccccc12)Oc1ccc(/C=C/c2cc(OC(=O)Cc3c[nH]c4ccccc34)cc(OC(=O)Cc3c[nH]c4ccccc34)c2)cc1 [Example 8, [4-[(E)-2-[3,5-bis[[2-(1H-indol-3-yl)acetyl]oxy]phenyl]vinyl]phenyl] 2-(1H-indol-3-yl)acetate]	C (>75% of the tested compound remaining)	C (>75% of the tested compound remaining)
CCCC(=O)NCCC[C@H](NC(=O)CCC)C(=O)O [Example 133, (2S)-2,5-bis(butanoylamino)pentanoic acid]	C (>75% of the tested compound remaining)	C (>75% of the tested compound remaining)
CCCC(=O)Nc1ccc(O)c(C(=O)O)c1 [Example 116, 5-(butanoylamino)-2-hydroxy-benzoic acid]	C (>75% of the tested compound remaining)	C (>75% of the tested compound remaining)
CCCC(=O)Oc1ccc(/C=C/c2cc(OC(=O)CCC)cc(OC(=O)CCC)c2)cc1 [Example 7, [4-[(E)-2-[3,5-di(butanoyloxy)phenyl]vinyl]phenyl] butanoate]	C (>75% of the tested compound remaining)	B (25-75% of the tested compound remaining)
CCC(=O)O[C@@H]1[C@@H](OC(=O)CC)[C@H](OC(=O)CC)CO[C@H]1O [Example 166, [(3R,4S,5R,6R)-6-hydroxy-4,5-di(propanoyloxy)tetrahydropyran-3-yl] propanoate]	C (>75% of the tested compound remaining)	B (25-75% of the tested compound remaining)
CC(=O)Oc1cc(OC(C)=O)c2c(=O)c(OC(C)=O)c(-c3ccc(OC(C)=O)c(OC(C)=O)c3)oc2c1 [Example 74, [2-acetoxy-4-(3,5,7-triacetoxy-4-oxo-chromen-2-yl)phenyl] acetate]	C (>75% of the tested compound remaining)	A (<25% of the tested compound remaining)
CCCC(=O)O[C@H](C)CC(=O)Oc1ccc2c(c1)oc(=O)c1cc(OC(=O)C[C@@H](C)OC(=O)CCC)c(OC(=O)C[C@@H](C)OC(=O)CCC)cc12 [Example 122, [8,9-bis[[(3R)-3-butanoyloxybutanoyl]oxy]-6-oxo-benzo[c]chromen-3-yl] (3R)-3-butanoyloxybutanoate]	C (>75% of the tested compound remaining)	A (<25% of the tested compound remaining)
